Test results published in patent US12699083B2, “Device for continuous measurement of cardiac activity” (The Hospital for Sick Children, priority 2018, dated 2026).

Legend:
hiPSC-CM monolayers = test: Drug test on hiPSC-CM monolayers cultured on CNT-PDMS device arrays (contractile stress, beating rate, beating rhythm from CNT sensor resistance); format: cell-based, human
Protocol: Once after hiPSC-CMs were seeded, the device array 10 was placed in a humidified 37° C. incubator with 5% CO2, and the electrical signal of the CNT sensors started to be recorded. A constant voltage of 2.5 V was applied to the CNT-PDMS sensors, and sensor signals were recorded with a sampling frequency of 10 Hz.
Drug stocks were kept at 4° C. prior to use. Drug tests were performed on hiPSC-CM monolayers during culture days between 10 and 14. […] After each drug addition, cells were incubated for 10 hours for each dose before CNT sensor signals were recorded to reflect the drug effect.
Each set of data was from 3 to 6 experiment repeats and presented as values of the mean and the standard error of the mean. For differential analysis, all statistics of recorded data was processed using Student's t-test with levels of 0.05, 0.1 when they were compared to the control group. All data sets passed Shapiro-Wilk normality tests and equal variance tests.
The contractile stress generated by cardiomyocytes monolayer during synchronous systole was calculated from the experimentally measured data (i.e., CNT sensor's electrical resistance change).

single hiPSC-CM = settings: 0.1 μM of OM, TFFB; cited from earlier work

Structure (SMILES): COC(=O)N1CCN(Cc2cccc(NC(=O)Nc3ccc(C)nc3)c2F)CC1 [OM, Omecamtiv mecarbil]
- contractile stress increase by (hiPSC-CM monolayers; 20 nM (0.02 μM) OM): 76%
- contractile stress (hiPSC-CM monolayers; 20 nM (0.02 μM) OM, n=3, p<0.05, before 2.25±0.11 kPa): 3.96±0.40 kPa
- amplitude of ΔR/R0 (hiPSC-CM monolayers; 20 nM OM, n=3, p<0.05, before 1.69×10^−2±8.46×10^−4): 2.98×10^−2±2.97×10^−3
- beating rate (hiPSC-CM monolayers; 20 nM OM, n=3, p>0.1, control 1.11±0.25 Hz): 1.13±0.31 Hz
- Contractility generated by a single cardiomyocyte increased by (single hiPSC-CM): 16.7%

Structure (SMILES): CC(C)NCC(O)c1ccc(O)c(O)c1 (centres unmarked) [Isoproterenol]
- beating rate increased by (hiPSC-CM monolayers; 2.00 μM isoproterenol): 13.6%
- Contractile stress increased by (hiPSC-CM monolayers; 2.00 μM isoproterenol vs control): 69.4%
- beating rate (hiPSC-CM monolayers; 2.00 μM isoproterenol, n=3, p<0.05, control 1.17±0.068 Hz): 1.33±0.081 Hz
- contractile stress (hiPSC-CM monolayers; 2.00 μM isoproterenol, n=3, control 2.34±0.093 kPa): 3.963±0.532 kPa

Structure (SMILES): COc1ccc(CCN(C)CCCC(C#N)(c2ccc(OC)c(OC)c2)C(C)C)cc1OC (centres unmarked) [Verapamil]
- contractile stress (hiPSC-CM monolayers; 0.20 μM Verapamil, n=3, before 2.34±9.31×10^−2 kPa): 1.15±1.31×10^−1 kPa

Structure (SMILES): Cc1cccc(CCN2CCC(C(=O)c3ccc(NS(C)(=O)=O)cc3)CC2)n1 [E-4031]
- contractile stress (hiPSC-CM monolayers; 0.10 μM E-4031, n=3): 2.47±0.48 kPa
- contractile stress (hiPSC-CM monolayers; 0.60 μM E-4031, n=3, p>0.1): 2.39±1.38 kPa

Structure (SMILES): COc1cc2c(cc1OC)CC(=O)N(CCCN(C)C[C@H]1Cc3cc(OC)c(OC)cc31)CC2 [Ivabradine]
- beating rate (hiPSC-CM monolayers; 10.00 μM Ivabradine, n=3, p<0.05, before 1.16±0.32 Hz): 0.81±0.30 Hz
- contractile stress (hiPSC-CM monolayers; 10.00 μM Ivabradine, n=3, p>0.1, before 2.26±0.43 kPa): 2.00±0.68 kPa
